System: wild-type (WT) murine embryonic fibroblasts (MEFs)
Assay: Untargeted LC/MS/MS proteomics of EVs from WT MEFs exposed 24 hours to drug, compared with untreated WT MEFs
Format: cell-based, mouse
Method: Methods for isolation and purification of exosomes and extracellular vesicles (EV) were extensively reviewed. Experiments were performed to arrive at a robust and reproducible protocol. The protocol used herein is that set forth in Théry et al, 2006, which is incorporated by reference for it teaching of this protocol. This protocol involves depleting serum-derived EVs from cell culture media by overnight ultracentrifugation and exchanging media for 1% FBS EV-depleted media. Media is then collected from cells following a 24-hour conditioning period and EVs are isolated by 18-hour ultracentrifugation at 100,000 g (FIG. 1A).
EVs were isolated from media of cultured murine embryonic fibroblasts (MEFs) prepared in-house according to protocols described by Xu 2005 from DYT1 knockin mice (Tor1a^delGAG/+) (Goodchild R E, et al. (2005) Neuron. 48:923-932) and littermate wild-type (WT) controls. The cultured MEFs from the DYT1 mice were exposed for 24 hours to Ritonavir (RTV) while the MEFs from WT mice were exposed to vehicle, ISRIB, or Salubrinal (SAL). The EVs isolated from these WT cells and DYT1 were characterized by untargeted proteomics and RNA-seq to identify differentially expressed proteins and RNAs as candidate biomarkers. Experimenter and Proteomics core staff were blinded to genotype of cell cultures throughout preparation and analysis phases. EV isolation was confirmed by Western immunoblot documenting presence of the exosomal marker (TSG101) and absence of the endoplasmic reticulum (ER) marker (CANX) (FIG. 1B (Cohort 1) and FIG. 1C (Cohort 2)).
Following the bicinchoninic acid assay (BCA) analysis and Western immunoblot of a portion of samples for QC, 11.6 μg-129.2 μg of EV protein lysates in RIPA buffer were sent to the Duke Proteomics and Metabolomics Shared Resource core facility for LC/MS/MS quantitative proteomic analysis. Samples were first normalized to 20 μg and spiked with undigested casein at a total of 40 fmol/μg, 80 fmol/μg, or 160 fmol/μg, then reduced with 10 mM dithiolthreitol for 30 minute at 80° C. and alkylated with 20 mM iodoacetamide for 30 minutes at room temperature. Next, the samples were supplemented with a final concentration of 1.2% phosphoric acid and 741 μL of S-Trap (Protifi) binding buffer (90% MeOH/100 mM […]). Proteins were trapped on the S-Trap, digested using 20 ng/μL sequencing grade trypsin (Promega) for 1 hour at 47° C., and eluted using 50 mM TEAB, followed by 0.2% FA, and lastly using 50% CAN/0.2% FA. All samples were then lyophilized to dryness and resuspended in 40 μL 1% TFA/2% acetonitrile containing 12.5 fmol/μL yeast alcohol dehydrogenase (ADH_YEAST). A QC Pool was created from 3 uL of each sample. All QC Pools were run periodically throughout the acquisition period.
Quantitative LC/MS/MS was performed on 2 μL of each sample, using a nanoAcquity UPLC system (Waters Corp) coupled to a Thermo Orbitrap Fusion Lumos high resolution accurate mass tandem mass spectrometer (Thermo) via a nanoelectrospray ionization source. Briefly, the sample was first trapped on a Symmetry C18 20 mm×180 μm trapping column (5 μL/min at 99.9/0.1 v/v water/acetonitrile), after which the analytical separation was performed using a 1.8 μm Acquity HSS T3 C18 75 μm×250 mm column (Waters Corp.) with a 90 minute linear gradient of 5% to 30% acetonitrile with 0.1% formic acid at a flow rate of 400 nanoliters/minute (nL/min) with a column temperature of 55° C. Data collection on the Fusion Lumos mass spectrometer was performed in a data-dependent acquisition (DDA) mode of acquisition with a r=120,000 (@ m/z 200) full MS scan from m/z 375-1500 with a target AGC value of 2e5 ions. MS/MS scans were acquired at Rapid scan rate (Ion Trap) with an AGC target of 5e3 ions and a max injection time of 100 ms. The total cycle time for MS and MS/MS scans was 2 seconds. A 20 second dynamic exclusion was employed to increase depth of coverage. The total analysis cycle time for each sample injection was approximately 2 hours. […]

[1] = EV protein P09528, Ferritin heavy chain

## O=C(COc1ccc(Cl)cc1)NC1CCC(NC(=O)COc2ccc(Cl)cc2)CC1 (centres unmarked) [ISRIB]
EV protein Akr1b1 (P45376)
  ISRIB Direction Same as dE?: yes
  ISRIBvWT Z Score: −0.22
EV protein Aldh2 (P47738)
  ISRIB Direction Same as dE?: yes
  ISRIBvWT Z Score: −7.25
EV protein Cnn3 (Q9DAW9)
  ISRIBvWT Z Score: 2.76
EV protein Cnot1 (Q6ZQ08)
  ISRIB Direction Same as dE?: yes
  ISRIBvWT Z Score: −2.56
EV protein Col5a1 (Q88207)
  ISRIB Direction Same as dE?: yes
  ISRIBvWT Z Score: 0.06
EV protein Copb2 (Q55029)
  ISRIB Direction Same as dE?: yes
  ISRIBvWT Z Score: −1.11
EV protein Cryab (P23927)
  ISRIBvWT Z Score: 0.39
EV protein Cxadr (P97792)
  ISRIBvWT Z Score: 1.72
EV protein D3YXG0
  ISRIBvWT Z Score: −2.25
EV protein Dars (Q922B2)
  ISRIB Direction Same as dE?: yes
  ISRIBvWT Z Score: −1.13
EV protein Dctn2 (Q99KJ8)
  ISRIB Direction Same as dE?: yes
  ISRIBvWT Z Score: −0.53
EV protein Ddx3x (Q62167)
  ISRIB Direction Same as dE?: yes
  ISRIBvWT Z Score: −1.08
EV protein Ddx5 (Q61656)
  ISRIB Direction Same as dE?: yes
  ISRIBvWT Z Score: −0.92
EV protein Ddx39b (Q9Z1N5)
  ISRIB Direction Same as dE?: yes
  ISRIBvWT Z Score: −1.12
EV protein Dhx9 (Q70133)
  ISRIB Direction Same as dE?: yes
  ISRIBvWT Z Score: −1.27
EV protein Dhx15 (Q35286)
  ISRIB Direction Same as dE?: yes
  ISRIBvWT Z Score: −1.19
EV protein Esyt1 (Q3U7R1)
  ISRIBvWT Z Score: 0.18
EV protein Exoc4 (Q35382)
  ISRIB Direction Same as dE?: yes
  ISRIBvWT Z Score: −1.51
EV protein Fth1 P09528
  ISRIBvWT Z Score: −3.46
EV protein Fus (P56959)
  ISRIBvWT Z Score: 0.85
EV protein Gsto1 (Q09131)
  ISRIBvWT Z Score: 0.04
EV protein Hist1h3a (P68433)
  ISRIB Direction Same as dE?: yes
  ISRIBvWT Z Score: −0.97
EV protein Hnrnpf (Q9Z2X1)
  ISRIB Direction Same as dE?: yes
  ISRIBvWT Z Score: −0.18
EV protein Hnrnph1 (Q35737)
  ISRIBvWT Z Score: 2.47
EV protein Idh2 (P54071)
  ISRIB Direction Same as dE?: yes
  ISRIBvWT Z Score: −2.01
EV protein Impa1 (Q55023)
  ISRIBvWT Z Score: 1.73
EV protein Ipo7 (Q9EPL8)
  ISRIBvWT Z Score: 0.30
EV protein Ipo11 (Q8K2V6)
  ISRIB Direction Same as dE?: yes
  ISRIBvWT Z Score: −1.97
EV protein Itgb3 (Q54890)
  ISRIBvWT Z Score: 0.14
EV protein Itm2b Q89051
  ISRIBvWT Z Score: −2.13
EV protein Itpa (Q9D892)
  ISRIB Direction Same as dE?: yes
  ISRIBvWT Z Score: −1.25
EV protein Kpna4 (Q35343)
  ISRIB Direction Same as dE?: yes
  ISRIBvWT Z Score: −3.18
EV protein Lipg (Q9WVG5)
  ISRIB Direction Same as dE?: yes
  ISRIBvWT Z Score: −2.47
EV protein Ltbp1 (Q8CG19)
  ISRIB Direction Same as dE?: yes
  ISRIBvWT Z Score: 2.17
EV protein Mcm2 (P97310)
  ISRIB Direction Same as dE?: yes
  ISRIBvWT Z Score: −2.10
EV protein Mdk (P12025)
  ISRIBvWT Z Score: 1.33
EV protein Mtap (Q9CQ65)
  ISRIB Direction Same as dE?: yes
  ISRIBvWT Z Score: −0.85
EV protein Myo18a
  ISRIBvWT Z Score: 2.27
EV protein Nrbp1 (Q99J45)
  ISRIBvWT Z Score: 0.18
EV protein Otub1 (Q7TQ..)
  ISRIBvWT Z Score: 2.26
EV protein Otub1 (Q7TQB)
  ISRIB Direction Same as dE?: yes
  ISRIBvWT Z Score: −2.26
[1]
  ISRIB Direction Same as dE?: yes
  ISRIBvWT Z Score: −3.46
EV protein P27612, Phospholipase A-2-activating protein
  ISRIB Direction Same as dE?: yes
